# Reference: publication PMC10101016, “The Photoactive Photosynthetic Reaction Center of a Rhodobacter sphaeroides Mutant Lacking 3-Vinyl (Bacterio)Chlorophyllide a Hydratase Contains 3-Vinyl Bacteriochlorophyll a” (Microbiology Spectrum, 2023)
# Where two headings read alike, the source gives them in different places.
# Target: T1, reaction center (WT-RC, V-RC) (Cereibacter sphaeroides, UniProt Q3J1A5+Q3J1A6)
# T1 construct: gene pufL
smiles,measurement,setting,value
COC(C)(C)C(=O)/C=C/C(C)=C/C=C/C(C)=C/C=C/C(C)=C/C=C/C=C(C)/C=C/C=C(\C)CC/C=C(\C)CCC=C(C)C [SO],"pigment extraction and HPLC of purified RC, absorption spectrum","WT-RC and V-RC, semiaerobically grown cells","two Bpheo a molecules, and one spheroidenone (SO) molecule"
C=Cc1c(C)c2cc3nc(c4c5[nH]c(cc6nc(cc1[nH]2)[C@H](C)[C@H]6CC)c(C)c5C(=O)[C@@H]4C(=O)OC)[C@@H](CCC(=O)OC/C=C(\C)CCC[C@H](C)CCC[C@H](C)CCCC(C)C)[C@@H]3C [3V-Bpheo a],"pigment extraction and HPLC of purified RC, absorption spectrum","V-RC from BFcfh-puhA, H-sites","The V-RC was estimated to contain four 3V-Bchl a molecules, two 3V-Bpheo a molecules"
COC(C)(C)C/C=C/C(C)=C/C=C/C(C)=C/C=C/C(C)=C/C=C/C=C(C)/C=C/C=C(\C)CC/C=C(\C)CCC=C(C)C [SE],"pigment extraction and HPLC of purified RC, absorption spectrum","WT-RC and V-RC, photoheterotrophically grown cells","except for the presence of spheroidene (SE), which reflects the culture conditions"
